Oligonucleotides are written 5' to 3', each unit as a sugar letter and its base; * is a phosphorothioate linkage, no mark a phosphodiester; rarer units and linkages stand in square brackets, end groups in braces. Plain capitals give the bases only. e = 2'-O-(2-methoxyethyl) (MOE); [5mC] = 5-methylcytosine; d = 2'-deoxy (DNA)
Key:
angiotensinogen mRNA [1] = test: Real-time PCR of angiotensinogen mRNA in SHR tissues, Study 3; format: in vivo, Spontaneously hypertensive (SHR) rats; conditions: 3 weeks, oligonucleotides 100 mg/kg/week, Captopril 150 mg/kg/day
Procedure: (§1) A group of SHR was injected with 100 mg/kg/week of ISIS 552668 administered for 3 weeks. A control group of SHR was injected with phosphate buffered saline (PBS) administered weekly for 3 weeks. Another control group of SHR was injected with 100 mg/kg/week of a control oligonucleotide (a nucleotide not targeted to angiotensinogen) administered for 3 weeks.
[…] The mRNA levels were normalized using the housekeeping gene, GAPDH. […] Results are presented as percent inhibition of angiotensinogen, relative to control.

angiotensinogen mRNA [2] = test: Real-time PCR of angiotensinogen mRNA in liver and kidney of Sprague-Dawley rats; format: in vivo; conditions: relative to PBS control
Procedure: A control group of rats was injected with phosphate buffered saline (PBS) administered weekly for 4 weeks. The rats were sacrificed at the end of the study at week 4. Whole liver and kidney were harvested for RNA analysis and plasma was collected for protein analysis. RNA was extracted from liver tissue for real-time PCR analysis of angiotensinogen, using primer probe set RTS3550 (forward sequence [NT], designated herein as SEQ ID NO: 18; reverse sequence [NT], designated herein as SEQ ID NO: 19; probe sequence [NT], designated herein as SEQ ID NO: 20). The mRNA levels were normalized using the housekeeping gene, GAPDH. […] Results are presented as percent inhibition of angiotensinogen, relative to control.

female SHR rats [3] = test: Heart size after harvest in female SHR rats, Study 2; format: in vivo, Spontaneously hypertensive (SHR) rats; conditions: after 3 weeks, versus wild-type controls
Procedure: The size of the heart was measured immediately after harvest.

angiotensinogen protein [4] = test: ELISA of angiotensinogen plasma levels in SHR, Study 3; format: in vivo, Spontaneously hypertensive (SHR) rats; conditions: 3 weeks, oligonucleotides 100 mg/kg/week, Captopril 150 mg/kg/day
Procedure: as §1
(§2) Angiotensinogen plasma levels were measured by ELISA (IBL International, Toronto, Canada). […] Results are presented as percent inhibition of angiotensinogen, relative to PBS control.

Dahl/SS rats = test: Blood pressure by tail-cuff method in Dahl/SS rats; format: in vivo, Dahl/Salt Sensititive (Dahl/SS) rats; conditions: female Dahl/SS rats, 8% NaCl diet; 3 weeks; ISIS oligonucleotides 40 mg/kg/week, Captopril 150 mg/kg daily
Procedure: The rats were fed a diet with 8% NaCl. A group of female Dahl/SS rats was injected with 40 mg/kg/week of ISIS 552668 administered for 3 weeks. A group of female Dahl/SS rats was injected with 40 mg/kg/week of control oligonucleotides ISIS 141923 administered for 3 weeks. […] A control group of female Dahl/SS rats was injected with phosphate buffered saline (PBS) administered weekly for 3 weeks. Another control group constituted a group of Dahl/Salt Resistant (Dahl/SR) rats injected with phosphate buffered saline (PBS) administered weekly for 3 weeks.
Systolic blood pressure (SBP), mean arterial pressure (MAP), and diastolic blood pressure (DBP) in the rats was measured by the tail-cuff volume-pressure method (Kent Scientific). The results are presented in Table 12, expressed as the percent decrease in blood pressure compared to the control SHR group.

renin mRNA = test: Real-time PCR of kidney renin mRNA in SHR, Study 3; format: in vivo, Spontaneously hypertensive (SHR) rats; conditions: 3 weeks, oligonucleotides 100 mg/kg/week, Captopril 150 mg/kg/day, PBS = 100
Procedure: A control group of SHR was injected with phosphate buffered saline (PBS) administered weekly for 3 weeks. Another control group of SHR was injected with 100 mg/kg/week of a control oligonucleotide (a nucleotide not targeted to angiotensinogen) administered for 3 weeks. […] RNA was extracted from kidney tissue for real-time PCR analysis of renin, using primer probe set rRenin2 (forward sequence [NT], designated herein as SEQ ID NO: 21; reverse sequence [NT], designated herein as SEQ ID NO: 22; probe sequence [NT], designated herein as SEQ ID NO: 23). The mRNA levels were normalized using the housekeeping gene, GAPDH. […] Increase in renin in the body is deleterious to the overall health of the animal (Nguyen and Muller, The Biology of the (Pro)Renin Receptor, J Am Soc Nephrol, 2010 January, 21(1):18-23). […] Results are presented as percent expression of renin, relative to control.

SHR [5] = test: Mean arterial pressure by tail-cuff method in SHR, Study 3; format: in vivo, Spontaneously hypertensive (SHR) rats; conditions: ISIS 552668 and control oligonucleotide 100 mg/kg/week, Captopril 150 mg/kg/day
Procedure: A control group of SHR was injected with phosphate buffered saline (PBS) administered weekly for 3 weeks. Another control group of SHR was injected with 100 mg/kg/week of a control oligonucleotide (a nucleotide not targeted to angiotensinogen) administered for 3 weeks. […] Mean arterial pressure (MAP) in the rats was measured by the tail-cuff volume-pressure method (Kent Scientific, Torrington, Conn.).

angiotensinogen protein [6] = test: ELISA of angiotensinogen plasma levels in Sprague-Dawley rats; format: in vivo; conditions: for Percent inhibition of angiotensinogen protein: plasma, relative to PBS control
Procedure: (§3) Groups of Sprague-Dawley rats were injected with 10 mg/kg/week, 20 mg/kg/week, 40 mg/kg/week, or 80 mg/kg/week of ISIS 552668 administered for 4 weeks. A control group of rats was injected with phosphate buffered saline (PBS) administered weekly for 4 weeks. The rats were sacrificed at the end of the study at week 4. Whole liver and kidney were harvested for RNA analysis and plasma was collected for protein analysis.
as §2

female SHR rats [7] = test: Blood pressure by tail-cuff method in female SHR rats with subsequent Captopril, Study 2; format: in vivo, Spontaneously hypertensive (SHR) rats; conditions: then Captopril 50 mg/kg/day for 4 days
Procedure: A control group of female SHR rats was injected with phosphate buffered saline (PBS) administered weekly for 2 weeks. Another control group constituted a group of wild-type rats injected with phosphate buffered saline (PBS) administered weekly for 2 weeks. […] Systolic blood pressure (SBP), mean arterial pressure (MAP), and diastolic blood pressure (DBP) in the rats was measured by the tail-cuff volume-pressure method (Kent Scientific, Torrington, Conn.).

SHR [8] = test: Systolic blood pressure by tail-cuff method in SHR before and after ISIS 552668 added to chronic Captopril, Study 4; format: in vivo, Spontaneously hypertensive (SHR) rats; conditions: no Captopril
Sprague-Dawley rats = test: Blood pressure by tail-cuff volume-pressure method in Sprague-Dawley rats; format: in vivo; conditions: after 4 wks of treatments
Procedure: as §3
(§4) Systolic blood pressure (SBP), mean arterial pressure (MAP), and diastolic blood pressure (DBP) in the rats was measured by the tail-cuff volume-pressure method (Kent Scientific, Torrington, Conn.).

angiotensinogen = test: Immunohistochemical analysis of liver, cardiac and kidney tissues in SHR, Study 3; format: in vivo, Spontaneously hypertensive (SHR) rats; conditions: 100 mg/kg/week for 3 weeks, compared to the PBS control
Procedure: as §1

female SHR rats [9] = test: Blood pressure by tail-cuff method in female SHR rats, Study 1; format: in vivo, Spontaneously hypertensive (SHR) rats; conditions: 2 weeks
Procedure: Groups of female SHR rats were injected with 50 mg/kg/week, 75 mg/kg/week, or 100 mg/kg/week of ISIS 552668 administered for 2 weeks. A control group of female SHR rats was injected with phosphate buffered saline (PBS) administered weekly for 2 weeks. Another control group constituted a group of wild-type rats injected with phosphate buffered saline (PBS) administered weekly for 2 weeks.
as §4

ISIS 552668: 5-10-5 MOE gapmer CACTGATTTTTGCCCAGGAT (SEQ ID NO: 17), phosphorothioate linkages, 5-methylcytosines, targeted to rat angiotensinogen (antisense e[5mC]*eA*e[5mC]*eT*eG*dA*dT*dT*dT*dT*dT*dG*d[5mC]*d[5mC]*d[5mC]*eA*eG*eG*eA*eT)
Percent inhibition of angiotensinogen mRNA compared to the PBS control, Heart (angiotensinogen mRNA [1]): 89%
Percent inhibition of angiotensinogen mRNA compared to the PBS control, Kidney (angiotensinogen mRNA [1]): 76%
Percent inhibition of angiotensinogen mRNA compared to the PBS control, Liver (angiotensinogen mRNA [1]): 87%
Percent inhibition of angiotensinogen mRNA, Kidney (angiotensinogen mRNA [2]; 10 mg/kg/wk for 4 weeks): 41%
Percent inhibition of angiotensinogen mRNA, Liver (angiotensinogen mRNA [2]; 10 mg/kg/wk for 4 weeks): 19%
Percent inhibition of angiotensinogen mRNA, Kidney (angiotensinogen mRNA [2]; 20 mg/kg/wk for 4 weeks): 68%
Percent inhibition of angiotensinogen mRNA, Liver (angiotensinogen mRNA [2]; 20 mg/kg/wk for 4 weeks): 59%
Percent inhibition of angiotensinogen mRNA, Kidney (angiotensinogen mRNA [2]; 40 mg/kg/wk for 4 weeks): 75%
Percent inhibition of angiotensinogen mRNA, Liver (angiotensinogen mRNA [2]; 40 mg/kg/wk for 4 weeks): 86%
Percent inhibition of angiotensinogen mRNA, Kidney (angiotensinogen mRNA [2]; 80 mg/kg/wk for 4 weeks): 77%
Percent inhibition of angiotensinogen mRNA, Liver (angiotensinogen mRNA [2]; 80 mg/kg/wk for 4 weeks): 96%
Effect on heart size of the SHR rats (female SHR rats [3]): reversed the increase in heart size of the SHR rats to that observed in the wild-type controls
Percent inhibition of angiotensinogen protein in the plasma compared to the PBS control (angiotensinogen protein [4]): 91%
DBP (Dahl/SS rats): 94 mm Hg
MAP (Dahl/SS rats): 111 mm Hg
SBP (Dahl/SS rats): 146 mm Hg
Percent increase of kidney renin mRNA (renin mRNA): 379%
MAP, Week 1 (SHR [5]): 117 mm Hg
MAP, Week 2 (SHR [5]): 104 mm Hg
MAP, Week 3 (SHR [5]): 109 mm Hg
Percent inhibition of angiotensinogen protein (angiotensinogen protein [6]; 10 mg/kg/wk for 4 weeks): 25%
Percent inhibition of angiotensinogen protein (angiotensinogen protein [6]; 20 mg/kg/wk for 4 weeks): 38%
Percent inhibition of angiotensinogen protein (angiotensinogen protein [6]; 40 mg/kg/wk for 4 weeks): 83%
Percent inhibition of angiotensinogen protein (angiotensinogen protein [6]; 80 mg/kg/wk for 4 weeks): 93%
ED50 for plasma protein reductions (angiotensinogen protein [6]; weekly dosing for 4 weeks): 23.6 mg/kg
DBP (female SHR rats [7]; ASO 50 mg/kg/wk for 2 weeks): 82 mm Hg
MAP (female SHR rats [7]; ASO 50 mg/kg/wk for 2 weeks): 97 mm Hg
SBP (female SHR rats [7]; ASO 50 mg/kg/wk for 2 weeks): 127 mm Hg
DBP (female SHR rats [7]; ASO 75 mg/kg/wk for 2 weeks): 74 mm Hg
MAP (female SHR rats [7]; ASO 75 mg/kg/wk for 2 weeks): 87 mm Hg
SBP (female SHR rats [7]; ASO 75 mg/kg/wk for 2 weeks): 113 mm Hg
DBP (female SHR rats [7]; ASO 100 mg/kg/wk for 2 weeks): 81 mm Hg
MAP (female SHR rats [7]; ASO 100 mg/kg/wk for 2 weeks): 94 mm Hg
SBP (female SHR rats [7]; ASO 100 mg/kg/wk for 2 weeks): 120 mm Hg
Blood pressure (SBP), Before ISIS 552668 dosing (SHR [8]; ISIS 552668 50 mg/kg/week): 146
Blood pressure (SBP), Before ISIS 552668 dosing (SHR [8]; ISIS 552668 100 mg/kg/week): 131
DBP (Sprague-Dawley rats; 10 mg/kg/wk): 107 mm Hg
MAP (Sprague-Dawley rats; 10 mg/kg/wk): 117 mm Hg
SBP (Sprague-Dawley rats; 10 mg/kg/wk): 138 mm Hg
DBP (Sprague-Dawley rats; 40 mg/kg/wk): 79 mm Hg
MAP (Sprague-Dawley rats; 40 mg/kg/wk): 92 mm Hg
SBP (Sprague-Dawley rats; 40 mg/kg/wk): 118 mm Hg
DBP (Sprague-Dawley rats; 80 mg/kg/wk): 68 mm Hg
MAP (Sprague-Dawley rats; 80 mg/kg/wk): 82 mm Hg
SBP (Sprague-Dawley rats; 80 mg/kg/wk): 109 mm Hg
Angiotensinogen in liver, cardiac and kidney tissues by immunohistochemical analysis (angiotensinogen): significant reduction of angiotensinogen
DBP (female SHR rats [9]; 50 mg/kg/wk): 100 mm Hg
MAP (female SHR rats [9]; 50 mg/kg/wk): 114 mm Hg
SBP (female SHR rats [9]; 50 mg/kg/wk): 144 mm Hg
DBP (female SHR rats [9]; 75 mg/kg/wk): 98 mm Hg
MAP (female SHR rats [9]; 75 mg/kg/wk): 111 mm Hg
SBP (female SHR rats [9]; 75 mg/kg/wk): 140 mm Hg
DBP (female SHR rats [9]; 100 mg/kg/wk): 81 mm Hg
MAP (female SHR rats [9]; 100 mg/kg/wk): 95 mm Hg
SBP (female SHR rats [9]; 100 mg/kg/wk): 122 mm Hg

Source: patent US20150297629A1, “MODULATION OF RENIN-ANGIOTENSIN SYSTEM (RAS) RELATED DISEASES BY ANGIOTENSINOGEN” (Isis Pharmaceuticals, Inc,, priority 2012, published 2015)
